How the values were obtained:
[1] = test system: Monocotyledonous and dicotyledonous test plants; assay: Example B1 herbicidal action, application post-emergence (Table B1a); format: in vivo; conditions: 250 g/ha, evaluated after 3 weeks, scale 0-10
Description: Monocotyledonous and dicotyledonous test plants were sown in seed trays in standard soil. Immediately after sowing (pre-emergence) or after 8 to 9 days cultivation (post-emergence), the test compounds were applied by spraying in the form of an aqueous solution derived from the formulation of the technical active ingredient in 0.6 ml acetone and 45 ml formulation solution containing 10.6% Emulsogen EL (CAS RN 61791-12-6), 42.2% N-methylpyrrolidone, 42.2% dipropylene glycol monomethyl ether (CAS RN 34590-94-8) and 0.2% X-77 (CAS RN 11097-66-8). The test plants were then grown in a greenhouse under optimum conditions. After a test duration of 3 weeks (post-emergence) or 4 weeks (pre-emergence), the test was evaluated (10=total damage to plant, 0=no damage to plant).

[2] = test system: Monocotyledonous and dicotyledonous test plants; assay: Example B1 herbicidal action, application pre-emergence (Table B1b); format: in vivo; conditions: 250 g/ha, evaluated after 4 weeks
Summary of the method: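 Visual damage rating, 10 = plant dead and 0 = unharmed, taken at 3 weeks for post-emergence and 4 weeks for pre-emergence treatment. Application by spray of formulated aqueous solution either immediately after sowing or at 8–9 days' growth, with mono- and dicot plants kept in a greenhouse.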

SMILES	herbicidal damage rating, Abutilon [1]	herbicidal damage rating, Amaranthus [1]	herbicidal damage rating, Digitaria [1]	herbicidal damage rating, Panicum [1]	herbicidal damage rating, Setaria [1]	herbicidal damage rating, Sida [1]	herbicidal action (damage rating 0-10), Amaranthus [2]	herbicidal action (damage rating 0-10), Digitaria [2]	herbicidal action (damage rating 0-10), Panicum [2]	herbicidal action (damage rating 0-10), Setaria [2]	herbicidal action (damage rating 0-10), Sida [2]
Cc1ccccc1C(F)(F)S(=O)(=O)C1=NOC(C)(C)C1 [1.92]	5	3	8	5	7	7	10	10	10	10	8
CC1(C)CC(S(=O)(=O)C(F)(F)c2cccnc2Cl)=NO1 [8.04]	3			3	2	0	10	10	10	10	3
CC1(C)CC(S(=O)(=O)C(F)c2cccnc2Cl)=NO1 (centres unmarked) [8.02]	2	0	6	3	3	3	7	9	10	8	0
CC1(C)CC(S(=O)(=O)C(F)(F)c2cccc(F)c2F)=NO1 [1.116]	5	5	8	7	7	0	10	10	10	10	7
CC1(C)CC(S(=O)(=O)C(F)(Cl)c2cccnc2Cl)=NO1 (centres unmarked) [8.03]	4	0	7	6	4	0	8	10	10	8	6
CC1(C)CC(S(=O)(=O)C(C)(F)c2c(F)cccc2F)=NO1 (centres unmarked) [1.55]	5	3	6	5	7	3	9	10	10	10	5
Cc1ccc(F)c(C(Br)S(=O)(=O)C2=NOC(C)(C)C2)c1F (centres unmarked) [1.102]	0	0	8	5	4	2	8	10	10	9	2
Cn1nc(C(F)(F)F)c(C(Cl)S(=O)(=O)C2=NOC(C)(C)C2)c1Cl (centres unmarked) [2.05]	4	0	3	7	0	3	5	9	10	10	8
CC1(C)CC(S(=O)(=O)C(Cl)c2cc(F)cc3c2OCOC3)=NO1 (centres unmarked) [1.147]	2	3	7	8	0	0	5	10	10	9	0
CC1(C)CC(S(=O)(=O)C(Br)c2cccc(F)c2F)=NO1 (centres unmarked) [1.132]	3	3	8	8	5	0	10	10	10	10	4
Cn1nc(C(F)(F)F)c(C(F)(F)S(=O)(=O)C2=NOC(C)(C)C2)c1OCC(F)(F)F [2.01]	8	5	7	5	5	6	10	10	10	10	9
Cn1nc(C(F)(F)F)c(C(Cl)S(=O)(=O)C2=NOC(C)(C)C2)c1OC(F)F (centres unmarked) [2.16]	7	8	4	0	8	7	10	10	10	10	7
CC1(C)CC(S(=O)(=O)C(F)(Cl)c2ccccc2)=NO1 (racemic) [1.75]	5	3	8	5	5	4	10	10	10	10	7
Cn1nc(C(F)(F)F)c(C(F)(F)S(=O)(=O)C2=NOC(C)(C)C2)c1Cl [2.03]	7	0	7	7	7	6	10	10	10	10	8
CC1(C)CC(S(=O)(=O)C(F)(Br)c2c(F)cccc2F)=NO1 (centres unmarked) [Compound No. 1.63, 3-[bromo-(2,6-difluorophenyl)-fluoro-methanesulfonyl]-5,5-dimethyl-4,5-dihydroisoxazole]	4	3	7	7	7	4	10	10	10	10	8
Cn1nc(C(F)(F)F)c(C(Cl)(Cl)S(=O)(=O)C2=NOC(C)(C)C2)c1OCC(F)(F)F [2.13]	6	7	5	7	8	7	10	10	10	10	7
C=C(OC(C)=O)C(F)(c1c(F)cccc1F)S(=O)(=O)C1=NOC(C)(C)C1 (racemic) [Compound No. 1.62]	4	2	7	8	6	5	10	9	10	10	8

Source: patent publication US8680290B2, “Isoxazoline derivatives and their use as herbicides” (Syngenta Limited, priority 2004, dated 2014)
